# Data published in US20250129104A1, “7H-PYRROLO[2,3-D]PYRIMIDINES AND PREPARATION AND USES THEREOF” (BioSplice Therapeutics, Inc., priority 2021, published 2025).
# pEC50: −log10 of the molar value.
# Molecular target: recombinant DYRK1A kinase (Homo sapiens (Human), UniProt Q13627)
# Test: DYRK1A kinase assay (Ser/Thr 18 peptide Z-lyte FRET assay)
# Format: biochemical
# Conditions: DYRK1A kinase activity; 15 μM ATP, 1 h room temperature; method text calls the value IC50
# Outline: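 Recombinant human DYRK1A (0.25 μg/mL) with 15 μM ATP and 4 μM Ser/Thr 18 peptide, 1 h at room temperature with compound (11-point, 1:3, 10 μM top, duplicate). Z-lyte development 1 h, then coumarin/fluorescein FRET emission ratio converted to % phosphorylation; IC50 by non-linear regression.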
row,pEC50,SMILES
1,7.92,"CC(C)(F)CNc1ncc2c(-c3ccc4ncncc4c3)c[nH]c2n1 [Compound 1956, N-(2-Fluoro-2-methylpropyl)-5-(quinazolin-6-yl)-7H-pyrrolo[2,3-d]pyrimidin-2-amine]"
2,8.18,"Fc1cc(-c2c[nH]c3nc(NCCC(F)(F)F)ncc23)cn2ccnc12 [Compound 204, 5-(8-Fluoroimidazo[1,2-a]pyridin-6-yl)-N-(3,3,3-trifluoropropyl)-7H-pyrrolo [2,3-d]pyrimidin-2-amine]"
3,7.14,"COc1nc(N[C@H]2CC[C@@H](OCCO)CC2)nc2[nH]cc(-c3ccn4nccc4c3)c12 [Compound 2213, 2-((cis-4-((4-Methoxy-5-(pyrazolo[1,5-a]pyridin-5-yl)-7H-pyrrolo[2,3-d]pyrimidin-2-yl)amino)cyclohexyl)oxy)ethan-1-ol]"
4,7.08,"Cc1nnc2ccc(-c3c[nH]c4nc(NCC(C)(C)F)ncc34)cn12 [Compound 895, N-(2-Fluoro-2-methylpropyl)-5-(3-methyl-[1,2,4]triazolo[4,3-a]pyridin-6-yl)-7H-pyrrolo[2,3-d]pyrimidin-2-amine]"
5,9.70,"COc1nc(N[C@H]2CC[C@](C)(O)CC2)nc2[nH]cc(-c3ccc4nnn(C)c4c3)c12 [Compound 3119, trans-4-((4-Methoxy-5-(1-methyl-1H-benzo[d][1,2,3]triazol-6-yl)-7H-pyrrolo[2,3-d]pyrimidin-2-yl)amino)-1-methylcyclohexan-1-ol]"
6,8.35,"COc1nc(NC2CCC(F)(F)CC2)nc2[nH]cc(-c3ccc4nccnc4c3)c12 [Compound 2230, N-(4,4-Difluorocyclohexyl)-4-methoxy-5-(quinoxalin-6-yl)-7H-pyrrolo[2,3-d]pyrimidin-2-amine]"
7,7.94,"CC(C)Nc1ncc2c(-c3ccn4ncc(C(=O)NCC5CC(F)(F)C5)c4c3)c[nH]c2n1 [Compound 1428, N-((3,3-Difluorocyclobutyl)methyl)-5-(2-(isopropylamino)-7H-pyrrolo[2,3-d]pyrimidin-5-yl)pyrazolo[1,5-a]pyridine-3-carboxamide]"
8,8.82,"Cc1nc2ccc(-c3c[nH]c4nc(C5CC5)ncc34)nc2n1C(C)C [Compound 676, 5-(2-Cyclopropyl-7H-pyrrolo[2,3-d]pyrimidin-5-yl)-3-isopropyl-2-methyl-3H-imidazo[4,5-b]pyridine]"
9,7.37,"C[C@H](Nc1ncc2c(-c3ccc4nnn(C)c4c3)c[nH]c2n1)C(F)(F)F [Compound 826, (S)-5-(1-Methyl-1H-benzo[d][1,2,3]triazol-6-yl)-N-(1,1,1-trifluoropropan-2-yl)-7H-pyrrolo[2,3-d]pyrimidin-2-amine]"
10,7.08,"COc1nc(NC2CCC(F)(F)CC2)nc2[nH]cc(-c3ccc4nnn(C)c4c3)c12 [Compound 2284, N-(4,4-Difluorocyclohexyl)-4-methoxy-5-(1-methyl-1H-benzo[d][1,2,3]triazol-6-yl)-7H-pyrrolo[2,3-d]pyrimidin-2-amine]"
11,7.99,"CCOc1nc(N[C@H](C)C(F)(F)F)nc2[nH]cc(-c3ccc4nccn4c3)c12 [Compound 2177, (R)-4-Ethoxy-5-(imidazo[1,2-a]pyridin-6-yl)-N-(1,1,1-trifluoropropan-2-yl)-7H-pyrrolo[2,3-d]pyrimidin-2-amine]"
12,5.85,"CC(C)(F)CNc1ncc2c(-c3ccc(C(F)F)nc3)c[nH]c2n1 [Compound 5, 5-(6-(Difluoromethyl)pyridin-3-yl)-N-(2-fluoro-2-methylpropyl)-7H-pyrrolo [2,3-d]pyrimidin-2-amine]"
13,7.03,"C[C@@H](Nc1ncc2c(-c3ccn4ncc(F)c4n3)c[nH]c2n1)C(F)(F)F [Compound 1679, (R)-5-(3-Fluoropyrazolo[1,5-a]pyrimidin-5-yl)-N-(1,1,1-trifluoropropan-2-yl)-7H-pyrrolo[2,3-d]pyrimidin-2-amine]"
14,8.89,"[2H]C([2H])([2H])Oc1nc(N[C@H]2CC[C@@H](OC)CC2)nc2[nH]cc(-c3ccc4nnn(C)c4c3)c12 [Compound 3115, 4-(Methoxy-d3)—N-(cis-4-methoxycyclohexyl)-5-(1-methyl-1H-benzo[d][1,2,3]triazol-6-yl)-7H-pyrrolo[2,3-d]pyrimidin-2-amine]"
15,8.40,"c1cn2nc(-c3c[nH]c4nc(NC5CCOCC5)ncc34)ccc2n1 [Compound 930, 5-(Imidazo[1,2-b]pyridazin-6-yl)-N-(tetrahydro-2H-pyran-4-yl)-7H-pyrrolo[2,3-d]pyrimidin-2-amine]"
16,8.82,"[2H]C([2H])([2H])O[C@H]1CC[C@@H](Nc2ncc3c(-c4ccc5nccn5n4)c[nH]c3n2)CC1 [Compound 2171, 5-(Imidazo[1,2-b]pyridazin-6-yl)-N-(cis-4-(methoxy-d3)cyclohexyl)-7H-pyrrolo[2,3-d]pyrimidin-2-amine]"
17,7.81,"COc1nc(N[C@H](C)C(F)(F)F)nc2[nH]cc(-c3ccn4nccc4c3)c12 [Compound 2204, (R)-4-Methoxy-5-(pyrazolo[1,5-a]pyridin-5-yl)-N-(1,1,1-trifluoropropan-2-yl)-7H-pyrrolo[2,3-d]pyrimidin-2-amine]"

row,pEC50,SMILES
1,6.31,"CN1CCN(C(=O)c2cnn3ccc(-c4c[nH]c5ncnc(NCC6CC6)c45)cc23)CC1 [Compound 1244, (5-(4-((cyclopropylmethyl)amino)-7H-pyrrolo[2,3-d]pyrimidin-5-yl)pyrazolo[1,5-a]pyridin-3-yl)(4-methylpiperazin-1-yl)methanone]"
2,8.30,"FC(F)CO[C@H]1CC[C@@H](Nc2ncc3c(-c4ccn5nccc5c4)c[nH]c3n2)CC1 [Compound 2201, N-(cis-4-(2,2-Difluoroethoxy)cyclohexyl)-5-(pyrazolo[1,5-a]pyridin-5-yl)-7H-pyrrolo[2,3-d]pyrimidin-2-amine]"
3,7.87,"CN1CCC(Nc2ncc3c(-c4ccc5nnn(C)c5c4)c[nH]c3n2)CC1 [Compound 841, 5-(1-Methyl-1H-benzo[d][1,2,3]triazol-6-yl)-N-(1-methylpiperidin-4-yl)-7H-pyrrolo[2,3-d]pyrimidin-2-amine]"
4,8.21,"COCCO[C@H]1CC[C@@H](Nc2ncc3c(-c4ccc5ncccc5c4)c[nH]c3n2)CC1 [Compound 2226, N-(cis-4-(2-Methoxyethoxy)cyclohexyl)-5-(quinolin-6-yl)-7H-pyrrolo[2,3-d]pyrimidin-2-amine]"
5,8.23,"CC(F)(F)CNc1ncc2c(-c3ccn4nccc4n3)c[nH]c2n1 [Compound 1649, N-(2,2-Difluoropropyl)-5-(pyrazolo[1,5-a]pyrimidin-5-yl)-7H-pyrrolo[2,3-d]pyrimidin-2-amine]"
6,8.62,"CCO[C@H]1CC[C@@H](Nc2ncc3c(-c4cc(F)c5nccn5c4)c[nH]c3n2)CC1 [Compound 2129, N-(cis-4-Ethoxycyclohexyl)-5-(8-fluoroimidazo[1,2-a]pyridin-6-yl)-7H-pyrrolo[2,3-d]pyrimidin-2-amine]"
7,6.64,"COC[C@@H](C)Nc1nc(OC)c2c(-c3ccc4nccn4n3)c[nH]c2n1 [Compound 2300, (R)-5-(Imidazo[1,2-b]pyridazin-6-yl)-4-methoxy-N-(1-methoxypropan-2-yl)-7H-pyrrolo[2,3-d]pyrimidin-2-amine]"
8,6.71,"COc1nc(N[C@H]2CC[C@@H](OC(F)F)CC2)nc2[nH]cc(-c3cc(F)c4nccn4c3)c12 [Compound 2258, N-(cis-4-(Difluoromethoxy)cyclohexyl)-5-(8-fluoroimidazo[1,2-a]pyridin-6-yl)-4-methoxy-7H-pyrrolo[2,3-d]pyrimidin-2-amine]"
9,8.30,"[2H]C([2H])([2H])O[C@H]1CC[C@@H](Nc2ncc3c(-c4ccc5nnn(C)c5c4)c[nH]c3n2)CC1 [Compound 2172, N-(cis-4-(Methoxy-d3)cyclohexyl)-5-(1-methyl-1H-benzo[d][1,2,3]triazol-6-yl)-7H-pyrrolo[2,3-d]pyrimidin-2-amine]"
10,6.59,"COc1nc(NCC(C)(C)F)nc2[nH]cc(-c3ccc4nc(C)n(CC(F)F)c4n3)c12 [Compound 2276, 5-(3-(2,2-Difluoroethyl)-2-methyl-3H-imidazo[4,5-b]pyridin-5-yl)-N-(2-fluoro-2-methylpropyl)-4-methoxy-7H-pyrrolo[2,3-d]pyrimidin-2-amine]"
11,7.01,"CN1CCN(c2ccc(CNc3ncc4c(-c5ccc6c(c5)CNC6=O)c[nH]c4n3)cn2)CC1 [Compound 10, 5-(2-(((6-(4-Methylpiperazin-1-yl)pyridin-3-yl)methyl)amino)-7H-pyrrolo [2,3-d]pyrimidin-5-yl)isoindolin-1-one]"
12,8.80,"COc1nc(N[C@H]2CC[C@](C)(O)CC2)nc2[nH]cc(-c3ccn4nccc4c3)c12 [Compound 2209, trans-4-((4-Methoxy-5-(pyrazolo[1,5-a]pyridin-5-yl)-7H-pyrrolo[2,3-d]pyrimidin-2-yl)amino)-1-methylcyclohexan-1-ol]"
13,7.15,"Cc1nc2cnc(-c3c[nH]c4ncncc34)cc2n1C(C)C [Compound 627, 1-Isopropyl-2-methyl-6-(7H-pyrrolo[2,3-d]pyrimidin-5-yl)-1H-imidazo[4,5-c]pyridine]"
14,8.13,"COc1nc(NC2CCN(C)CC2)nc2[nH]cc(-c3ccn4nccc4c3)c12 [Compound 2216, 4-Methoxy-N-(1-methylpiperidin-4-yl)-5-(pyrazolo[1,5-a]pyridin-5-yl)-7H-pyrrolo[2,3-d]pyrimidin-2-amine]"
15,8.33,"Cn1nnc2ccc(-c3c[nH]c4nc(N[C@H]5CC[C@@](C)(O)CC5)ncc34)cc21 [Compound 2191, cis-1-Methyl-4-((5-(1-methyl-1H-benzo[d][1,2,3]triazol-6-yl)-7H-pyrrolo[2,3-d]pyrimidin-2-yl)amino)cyclohexan-1-ol]"
16,8.52,"CCO[C@H]1CC[C@@H](Nc2ncc3c(-c4ccc5nccn5n4)c[nH]c3n2)CC1 [Compound 2145, N-(cis-4-Ethoxycyclohexyl)-5-(imidazo[1,2-b]pyridazin-6-yl)-7H-pyrrolo [2,3-d]pyrimidin-2-amine]"
17,7.12,"CC(C)(C)CNc1ncc2c(-c3cc(F)c4nccn4c3)c[nH]c2n1 [Compound 197, 5-(8-Fluoroimidazo[1,2-a]pyridin-6-yl)-N-neopentyl-7H-pyrrolo[2,3-d]pyrimidin-2-amine]"
